Measured values published in the supplement of paper PMC10883282.

Key:
Experiment in all cases: relative viability vs DMSO control (72 h) (fraction); higher = more viable cells
SK-ES-1 = test system: SK-ES-1
In short: (§1)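 Sarcoma cell lines went into 384-well plates at densities chosen to reach 80–90% confluence. After 24 h, each well received 2.5 µl of serially diluted compound, with source plates running from 10 mM to 0.0002 mM, and the plates were kept 72 h at 37 °C, 5% CO2, alongside 0.1% DMSO vehicle and a 5 µM positive control. Relative viability was derived from ATPLite readings as percent growth and averaged over up to triplicate wells. The data were then rescaled so that 1 stands for full and 0 for none.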

G401 = test system: G401
In short: as §1

VA-ES-BJ = test system: VA-ES-BJ
In short: as §1

HT1080 = test system: HT1080
In short: as §1

SK-LMS-1 = test system: SK-LMS-1
In short: as §1

RD-ES = test system: RD-ES
In short: as §1

SW982 = test system: SW982
In short: as §1

KHOS-NP = test system: KHOS-NP
In short: as §1

A204 = test system: A204
In short: as §1

HS729 = test system: HS729
In short: as §1

SW684 = test system: SW684
In short: as §1

SW872 = test system: SW872
In short: as §1

Cc1cc(F)c(C(=O)Nc2cccc(-c3nncn3C(C)C)n2)cc1-n1cnc(C2CC2)c1 [Selonsertib]
Conditions	relative viability
A204, 0.00017 µM	1.07
A204, 0.00051 µM	1.02
A204, 0.00152 µM	1.03
A204, 0.00457 µM	1.09
A204, 0.01372 µM	1.07
A204, 0.04115 µM	1.08
A204, 0.1235 µM	1.1
A204, 0.3704 µM	1.07
A204, 1.111 µM	1.01
A204, 3.333 µM	0.802
A204, 10 µM	0.389
G401, 0.00017 µM	1.02
G401, 0.00051 µM	0.988
G401, 0.00152 µM	1.01
G401, 0.00457 µM	1.01
G401, 0.01372 µM	0.995
G401, 0.04115 µM	1.04
G401, 0.1235 µM	1.01
G401, 0.3704 µM	0.994
G401, 1.111 µM	0.979
G401, 3.333 µM	0.882
G401, 10 µM	0.684
HS729, 0.00017 µM	0.914
HS729, 0.00051 µM	0.917
HS729, 0.00152 µM	0.92
HS729, 0.00457 µM	0.973
HS729, 0.01372 µM	0.936
HS729, 0.04115 µM	0.942
HS729, 0.1235 µM	0.888
HS729, 0.3704 µM	0.933
HS729, 1.111 µM	0.875
HS729, 3.333 µM	0.94
HS729, 10 µM	0.943
HT1080, 0.00017 µM	1.01
HT1080, 0.00051 µM	1.04
HT1080, 0.00152 µM	1.04
HT1080, 0.00457 µM	1.04
HT1080, 0.01372 µM	1.05
HT1080, 0.04115 µM	1.04
HT1080, 0.1235 µM	1.04
HT1080, 0.3704 µM	1.03
HT1080, 1.111 µM	1.08
HT1080, 3.333 µM	1.09
HT1080, 10 µM	1.081
KHOS-NP, 0.00017 µM	1.04
KHOS-NP, 0.00051 µM	1.05
KHOS-NP, 0.00152 µM	1.042
KHOS-NP, 0.00457 µM	1.06
KHOS-NP, 0.01372 µM	1.06
KHOS-NP, 0.04115 µM	1.07
KHOS-NP, 0.1235 µM	1.07
KHOS-NP, 0.3704 µM	0.911
KHOS-NP, 1.111 µM	1.06
KHOS-NP, 3.333 µM	1.02
KHOS-NP, 10 µM	0.707
RD-ES, 0.00017 µM	0.972
RD-ES, 0.00051 µM	0.988
RD-ES, 0.00152 µM	0.955
RD-ES, 0.00457 µM	0.983
RD-ES, 0.01372 µM	0.999
RD-ES, 0.04115 µM	1.02
RD-ES, 0.1235 µM	0.983
RD-ES, 0.3704 µM	1.01
RD-ES, 1.111 µM	0.994
RD-ES, 3.333 µM	0.975
RD-ES, 10 µM	0.537
SK-ES-1, 0.00017 µM	1.01
SK-ES-1, 0.00051 µM	1.05
SK-ES-1, 0.00152 µM	1.03
SK-ES-1, 0.00457 µM	1.09
SK-ES-1, 0.01372 µM	1.08
SK-ES-1, 0.04115 µM	1.03
SK-ES-1, 0.1235 µM	1.03
SK-ES-1, 0.3704 µM	1.01
SK-ES-1, 1.111 µM	0.988
SK-ES-1, 3.333 µM	0.896
SK-ES-1, 10 µM	0.313
SK-LMS-1, 0.00017 µM	1.07
SK-LMS-1, 0.00051 µM	1.08
SK-LMS-1, 0.00152 µM	1.08
SK-LMS-1, 0.00457 µM	1.09
SK-LMS-1, 0.01372 µM	1.11
SK-LMS-1, 0.04115 µM	1.09
SK-LMS-1, 0.1235 µM	1.09
SK-LMS-1, 0.3704 µM	1.09
SK-LMS-1, 1.111 µM	1.04
SK-LMS-1, 3.333 µM	1.05
SK-LMS-1, 10 µM	0.898
SW684, 0.00017 µM	1.15
SW684, 0.00051 µM	1.136
SW684, 0.00152 µM	1.14
SW684, 0.00457 µM	1.15
SW684, 0.01372 µM	1.2
SW684, 0.04115 µM	1.14
SW684, 0.1235 µM	1.11
SW684, 0.3704 µM	1.12
SW684, 1.111 µM	1.1
SW684, 3.333 µM	1.13
SW684, 10 µM	1.012
SW872, 0.00017 µM	0.995
SW872, 0.00051 µM	1
SW872, 0.00152 µM	1.02
SW872, 0.00457 µM	1.03
SW872, 0.01372 µM	1.03
SW872, 0.04115 µM	1.04
SW872, 0.1235 µM	1.06
SW872, 0.3704 µM	1.05
SW872, 1.111 µM	1.08
SW872, 3.333 µM	1.07
SW872, 10 µM	1.05
SW982, 0.00017 µM	1.05
SW982, 0.00051 µM	1.05
SW982, 0.00152 µM	1.07
SW982, 0.00457 µM	1.05
SW982, 0.01372 µM	1.08
SW982, 0.04115 µM	1.09
SW982, 0.1235 µM	1.07
SW982, 0.3704 µM	1.09
SW982, 1.111 µM	1.09
SW982, 3.333 µM	1.1
SW982, 10 µM	1.07
VA-ES-BJ, 0.00017 µM	0.995
VA-ES-BJ, 0.00051 µM	0.995
VA-ES-BJ, 0.00152 µM	1.01
VA-ES-BJ, 0.00457 µM	0.972
VA-ES-BJ, 0.01372 µM	0.989
VA-ES-BJ, 0.04115 µM	0.977
VA-ES-BJ, 0.1235 µM	0.967
VA-ES-BJ, 0.3704 µM	0.969
VA-ES-BJ, 1.111 µM	0.938
VA-ES-BJ, 3.333 µM	0.918
VA-ES-BJ, 10 µM	0.848
